In one data set the test system is SK-BR-3. Description: In vitro cytotoxicity assay (CCK-8) in SK-BR-3. The format is cell-based. Conditions: Homo sapiens, toxins (expected metabolites of the ADCs), 120 hours. Here is the method: (§1) Dispensed 175 μL cell suspension in 96-well plate at 1500 cells per well and incubate for 24 hours in a humidified incubator (37° C., 5% CO2). […] Added 25 μL various concentrations of compound as a […] solution into the cell culture medium (Fetal bovine serum, Invitrogen) in the plate and incubated for 120 hours in the incubator. Thawed CCK-8 on the bench top or in a 37° C. water bath, added 10 μL of CCK-8 to each well of the incubated plate (be careful not introducing air bubbles into the wells since they would interfere with the O. D. reading) and then further incubated for 1-4 hours in the incubator. Measured the absorbance at 450 nm using a SpectraMax i3× Microplate Reader and calculated the cell inhibition rate. The IC50 curves were generated along with the IC50 values by using GraphPad Prism software.

The next data set concerns NCI-N87. The data set is described as follows: In vitro cytotoxicity assay (CCK-8) in NCI-N87. The format is cell-based. The note with it: Homo sapiens, toxins (expected metabolites of the ADCs), 120 hours. The protocol:
as §1

In a further data set the test system is MCF-7. The data set is described as follows: In vitro cytotoxicity assay (CCK-8) in MCF-7. The class given is cell-based. Conditions: Homo sapiens, MCF7; toxins (expected metabolites of the ADCs), 120 hours. The protocol:
as §1

The next data set relates to SK-OV-3. The data set is described as follows: In vitro cytotoxicity assay (CCK-8) in SK-OV-3. The class given is cell-based. The note with it: Homo sapiens, toxins (expected metabolites of the ADCs), 120 hours. The protocol:
as §1

In a further data set the test system is MDA-MB-468. Description: In vitro cytotoxicity assay (CCK-8) in MDA-MB-468. The class given is cell-based. Conditions: Homo sapiens, toxins (expected metabolites of the ADCs), 120 hours. Here is the method:
as §1

Another data set deals with JIMT-1. Description: cells. The class given is cell-based, human. The note with it: for IC50: Homo sapiens, JIMT-1, toxins (expected metabolites of the ADCs), 120 hours. The protocol:
as §1

A further data set concerns OVCAR-3. The data set is described as follows: In vitro cytotoxicity assay (CCK-8) in OVCAR-3. The class given is cell-based. The note with it: Homo sapiens, toxins (expected metabolites of the ADCs), 120 hours. Here is the method: as §1

Regarding `CC[C@@]1(O)C(=O)OCc2c1cc1n(c2=O)Cc2c-1nc1cc(F)c(C)c3c1c2[C@@H](NC(=O)CO)CC3` [DXd, reference compound], the IC50 in the data set on SK-BR-3 came out at 1.9 nM; with NCI-N87, 3.6 nM.

In the case of `CC[C@@]1(O)C(=O)OCc2c1cc1n(c2=O)Cc2cc3c(CCCCO)c(C)c(F)cc3nc2-1` [MB-1, (19S)-19-ethyl-6-fluoro-19-hydroxy-8-(4-hydroxybutyl)-7-methyl-17-oxa-3,13-diazapentacyclo[11.8.0.0^2,11.0^4,9.0^15,20]henicosa-1(21),2,4,6,8,10,15(20)-heptaene-14,18-dione], the IC50 in the data set with SK-BR-3 is 0.77 nM; in the data set on MCF-7, 0.37 nM; in the data set on NCI-N87, 1.3 nM; in the data set with SK-OV-3, 1 nM; in the data set with MDA-MB-468 it was 0.42 nM; in the data set with JIMT-1 it was 0.78 nM. Moreover, the IC50 with OVCAR-3 came out at 0.1 nM. Besides, the “cytotoxic potency relative to DXd” value in the data set with JIMT-1 was “ten folds more potent than DXd”.

Regarding `CCc1c2c(nc3cc(F)c(C)c(CCCCO)c13)-c1cc3c(c(=O)n1C2)COC(=O)[C@]3(O)CC`, the IC50 with SK-BR-3, with NCI-N87, with MDA-MB-468 and in the data set with JIMT-1 was greater than 30 nM in each case.

What is called IC50 is the midpoint of a concentration-inhibition curve.
